Experiments:
[1] = tested on: BxPC-3 cells; assay: In vitro cell proliferation, BxPC-3; type: cell-based, human
[2] = tested on: Mia-PaCa-2 human pancreatic cancer cells; assay: MiaPaCa-2 xenograft tumor therapy study with IMC-C225, gemcitabine and radiation; type: in vivo, athymic nude mice; conditions: s.c. Mia-PaCa-2 tumors, n=8/group, RT 3 Gy q6d
Experimental: Athymic nude mice were implanted subcutaneously with 2×10^7 Mia-PaCa-2 cells mixed with Matrigel.
MiaPaCa-2 cells were mixed with Matrigel (1:1) and 2×10^7 cells injected s.c. into athymic nude mice on day 0. […] Four groups of mice received gemcitabine (120 mg/kg) i.v. on days 23, 29, 35, 41, 47, and 54. In four groups of mice, tumors were exposed to six fractions of 3 Gy ^60Co radiation on days 24, 30, 36, 42, 48, and 55. The results are presented as the change in tumor size relative to baseline size on day 22. The MiaPaCa-2 experiment was terminated after 333 days.
In the animal model tumor therapy studies, multiple endpoints were examined and appropriate statistical tests were conducted to address differences between treatment groups with respect to each endpoint. The endpoints included, the size of the tumor, which was computed for each tumor at each time period, percent of original tumor size, computed for each tumor at each time point after baseline, regression, time to regression, and time that the tumor size reached twice the original tumor size (time to double). Inferences are made on the true median rather than the mean response, i.e. median tumor size or median time to double in size.

[3] = tested on: MiaPaCa-2 cells; assay: Apoptotic cell death in vitro (annexin V-FITC), MiaPaCa-2; type: cell-based, human; conditions: MiaPaCa-2, p-value<0.05; not enhanced by any other treatment
Excerpt: Early stages of apoptosis were identified using an annexin V-FITC apoptosis detection kit (BioVision Research Products, Palo Alto, Calif.). In studies of radiation cell survival assays, survival data was fitted to the linear quadratic (LQ) and single hit multi-target (SHMT) radiobiological models using Fit v. 2.4 software kindly provided by Dr. N. Albright, University of California at San Francisco.
(§1) Various combinations of treatment modality were studied in vitro.

[4] = tested on: MiaPaCa-2 cells; assay: In vitro cell proliferation, MiaPaCa-2; type: cell-based, human
Excerpt: as §1

[5] = tested on: SW948 cells; assay: SW948 colon tumor xenograft study with IMC-C225, CPT-11 and RT; type: in vivo, athymic nude mice; conditions: s.c. SW948 tumors, n=7/group, RT 3 Gy q6d

| Structure (SMILES) | cell proliferation, combination of radiation (3 Gy) and gemcitabine ([1]; BxPC-3) | inhibition of cell growth ([1]; BxPC-3, 24 h exposure to the IC50 dose of gemcitabine) | mean tumor size doubling time ([2]; IMC-C225 1 mg q3d×12, GEM 120 mg/kg q6d) [days] | complete tumor regressions ([2]; IMC-C225 1 mg q3d×12 i.p., GEM 120 mg/kg q6d, regressions/animals) | apoptotic cell death [3] | cell proliferation, combination of radiation (3 Gy) and gemcitabine ([4]; MiaPaCa-2) | inhibition of cell growth ([4]; MiaPaCa-2, 24 h exposure to the IC50 dose of gemcitabine) | mean tumor size doubling time ([5]; IMC-C225 1 mg q3d×12, CPT-11 33 mg/kg q4d) [days] | complete tumor regressions ([5]; IMC-C225 1 mg q3d×12 i.p., CPT-11 33 mg/kg i.v. q4d, regressions/animals) |
| --- | --- | --- | --- | --- | --- | --- | --- | --- | --- |
| Nc1ccn([C@@H]2O[C@H](CO)[C@@H](O)C2(F)F)c(=O)n1 [gemcitabine] | decrease in cell proliferation | approximately 55% | 22 | 0/8 | small but significant increase | decrease in cell proliferation | approximately 45% | – | – |
| CCc1c2c(nc3ccc(OC(=O)N4CCC(N5CCCCC5)CC4)cc13)-c1cc3c(c(=O)n1C2)COC(=O)[C@]3(O)CC [CPT-11, irinotecan] | – | – | – | – | – | – | – | 57 | 0/7 |
